In brackets after ≈: the same amount, converted by molar mass. Entries after “also recorded” stand apart in the source; their conditions may differ. Read-outs that look alike come from different tables or passages of the source.
Experiments:
Type in all cases: cell-based
[1] = system: Staphylococcus aureus ATCC 29213; test: MIC measured by fluid broth microdilution method (quality control); settings: ATCC29213
[2] = system: Staphylococcus aureus ATCC 29213; test: MIC measured by agar dilution method, quality control strain; settings: strain 100, MSSA QC strain
Procedure: (§1) Spontaneous mutation and minimal inhibit concentration (MIC) tested by agar dilution method, the above compounds are respectively prepared into a stock solution (100X) with a concentration 100 times the highest final concentration in corresponding solvents and used on the same day. Before use, I is further diluted with DMSO; and oxacillin, rifampicin and levofloxacin are further diluted with water.
(§2) Bacterial isolates: Staphylococcus aureus isolates are retrieved from the −80° C. storage room of Micromyx Culture Collection, thawed, plated onto Tryptic Soy Agar+5% sheep blood (Remel; Lenexa, Kans.), and then incubated aerobically at 35° C. overnight. S. aureus ATCC 29213 (MRSA; MMX 0100) was included during testing only for the purpose of quality control. Test Media: The isolates were tested in both the agar dilution MIC assay and the spontaneous mutation assay using Mueller-Hinton Agar (MHA; BD/BBL; Lot No. 6229829 & 4216798). Inocula of each isolate were suspended in cation-adjusted Mueller-Hinton Broth (CAMHB) (BD/BBL; Lot Nos. 5257869 & 6258541). Sodium chloride (Sigma-Aldrich; Lot No. SLBL0434V) was added to CAMHB at a final concentration of 2% when testing oxacillin. Dilutions of bacterial cell suspensions for the purpose of performing colony counts were also made in CAMHB.
(§3) MIC measured by agar dilution method: according to the recommendation from the Clinical and Laboratory Standards Institute (CLSI), the MIC value is measured by the agar dilution method. […] Each test agent was combined with molten MHA agar (50-55° C.) at a ratio of 0.2 mL of 100× test agent to 19.8 mL agar in a sterile tube, mixed gently, and then poured into a sterile petri plate (BD Falcon). Plates were allowed to solidify at room temperature. A 0.5 McFarland standard bacterial suspension was prepared, diluted 1:10 in CAMHB, and transferred to the wells of a stainless steel replicator block before stamping onto plates containing drug, resulting in 10^4 CFU/spot. After allowing the inoculum to dry on the surface of the agar, the plates were inverted, incubated aerobically at 35° C. for 20-24 hr, and inspected for growth.
In parallel experiments, a standard bacterium suspension with a […] turbidity of 0.5 is prepared as a standard inoculum for agar dilution analysis (10^4 CFU/point). […] In this step, the broths and drugs used in the spontaneous mutation analysis are used to confirm that the concentration of the drug stock solution can inhibit the growth of the standard inoculum. The quality of the levofloxacin stock solution is controlled by a standard inoculum and levofloxacin of 8-0.008 μg/mL, and separate agar dilution analysis is performed. […]

[3] = system: Staphylococcus aureus MMX 3265, 3270, 3278, and 6312; settings: for Cell counts (mean): 1 used if no colonies
Procedure: Each test agent stock solution was prepared at 100× the final desired test concentration for the spontaneous mutation frequency assay agar plates.
The drug/agar mixture was dispensed into sterile 150×15 mm plates (BD Falcon) to a volume of 50 mL in each plate. The target inoculum for each spontaneous mutation plate was at least 10^9 CFU. Plates were allowed to solidify at room temperature.
The inocula for the spontaneous mutation frequency assay were prepared by using sterile cotton swabs to harvest colonies from freshly grown isolates and preparing a dense cell suspension (approximately 1.70 on the turbidity meter) in 6 mL of CAMHB. The viable count of this suspension was determined by plating serial ten-fold dilutions onto MHA and taking the average of duplicate counts. For the spontaneous mutation assay, 0.25 mL of inoculum was spread onto the surface of duplicate 150×15 mm plates for each drug concentration tested, allowed to dry, and then the plates were inverted and incubated at 35° C. for 48 hr prior to counting viable colonies. The spontaneous mutation frequency was calculated using the following equation:
Spontaneous mutation frequency=average number of colonies on selected plates/total number of cells incubated onto each plate
If there were no colonies on the antibiotic selection plates, the spontaneous mutation frequency was reported as less than or equal to the mutation frequency that would have resulted from the presence of one colony (e.g. 1/total number of cells inoculated onto the plate).

[4] = system: methicillin-resistant Staphylococcus aureus (MRSA) isolates; test: MIC measured by agar dilution method (CLSI); settings: Staphylococcus aureus, MRSA, agar dilution
Procedure: as §1, §2, §3

[5] = isolate 3265 LEV^R RIF^S, drug 0.5 μg/mL in plates (combination 0.5 each), inoculation 5.40E+09 CFU
[6] = isolate 3265 LEV^R RIF^S, drug 2 μg/mL in plates (combination 2 each), inoculation 5.40E+09 CFU
[7] = isolate 3265 LEV^R RIF^S, drug 8 μg/mL in plates (combination 8 each), inoculation 5.40E+09 CFU
[8] = isolate 3270 LEV^R RIF^S, drug 0.5 μg/mL in plates (combination 0.5 each), inoculation 5.30E+09 CFU
[9] = isolate 3270 LEV^R RIF^S, drug 2 μg/mL in plates (combination 2 each), inoculation 5.30E+09 CFU
[10] = isolate 3270 LEV^R RIF^S, drug 8 μg/mL in plates (combination 8 each), inoculation 5.30E+09 CFU
[11] = isolate 3278 LEV^S RIF^S, drug 0.5 μg/mL in plates (combination 0.5 each), inoculation 3.80E+09 CFU
[12] = isolate 3278 LEV^S RIF^S, drug 2 μg/mL in plates (combination 2 each), inoculation 3.80E+09 CFU
[13] = isolate 3278 LEV^S RIF^S, drug 8 μg/mL in plates (combination 8 each), inoculation 3.80E+09 CFU
[14] = isolate 6312 LEV^R RIF^S, drug 0.5 μg/mL in plates (combination 0.5 each), inoculation 3.90E+09 CFU
[15] = isolate 6312 LEV^R RIF^S, drug 2 μg/mL in plates (combination 2 each), inoculation 3.90E+09 CFU
[16] = isolate 6312 LEV^R RIF^S, drug 8 μg/mL in plates (combination 8 each), inoculation 3.90E+09 CFU

CO[C@H]1/C=C/O[C@@]2(C)Oc3c(C)c(O)c4c(O)c(c(/C=N/N5CCC(N(C)C6([C@@H]7CCN(c8c(F)cn9c(=O)c(C(=O)O)cc(C%10CC%10)c9c8C)C7)CC6)CC5)c(O)c4c3C2=O)NC(=O)/C(C)=C\C=C\[C@H](C)[C@H](O)[C@@H](C)[C@@H](O)[C@@H](C)[C@H](OC(C)=O)[C@@H]1C [I]
MIC [1]: 0.25 µg/mL (≈ 0.207 µM) | MIC [2]: 0.015 µg/mL (≈ 0.0124 µM) | spontaneous mutants / development of drug resistance (in words) ([3]; four MRSA isolates, 0.5, 2 or 8 μg/mL): No spontaneous mutants are recovered; also recorded: none of the four MRSA strains under test develops drug resistance | Cell counts (mean) ([3]; isolate 3265, drug 0.5 μg/mL): 1^1 | Cell counts (mean) ([3]; isolate 3265, drug 2 μg/mL): 1 | Cell counts (mean) ([3]; isolate 3265, drug 8 μg/mL): 1 | Cell counts plate A [3, 5]: 0 | Cell counts plate B [3, 5]: 0 | Mutation frequency [3, 5]: <1.85E−10 | Cell counts plate A [3, 6]: 0 | Cell counts plate B [3, 6]: 0 | Mutation frequency [3, 6]: <1.85E−10 | Cell counts plate A [3, 7]: 0 | Cell counts plate B [3, 7]: 0 | Mutation frequency [3, 7]: <1.85E−10 | Cell counts (mean) ([3]; isolate 3270, drug 0.5 μg/mL): 1 | Cell counts (mean) ([3]; isolate 3270, drug 2 μg/mL): 1 | Cell counts (mean) ([3]; isolate 3270, drug 8 μg/mL): 1 | Cell counts plate A [3, 8]: 0 | Cell counts plate B [3, 8]: 0 | Mutation frequency [3, 8]: <1.89E−10 | Cell counts plate A [3, 9]: 0 | Cell counts plate B [3, 9]: 0 | Mutation frequency [3, 9]: <1.89E−10 | Cell counts plate A [3, 10]: 0 | Cell counts plate B [3, 10]: 0 | Mutation frequency [3, 10]: <1.89E−10 | Cell counts (mean) ([3]; isolate 3278, drug 0.5 μg/mL): 1 | Cell counts (mean) ([3]; isolate 3278, drug 2 μg/mL): 1 | Cell counts (mean) ([3]; isolate 3278, drug 8 μg/mL): 1 | Cell counts plate A [3, 11]: 0 | Cell counts plate B [3, 11]: 0 | Mutation frequency [3, 11]: <2.63E−10 | Cell counts plate A [3, 12]: 0 | Cell counts plate B [3, 12]: 0 | Mutation frequency [3, 12]: <2.63E−10 | Cell counts plate A [3, 13]: 0 | Cell counts plate B [3, 13]: 0 | Mutation frequency [3, 13]: <2.63E−10 | Cell counts (mean) ([3]; isolate 6312, drug 0.5 μg/mL): 1 | Cell counts (mean) ([3]; isolate 6312, drug 2 μg/mL): 1 | Cell counts (mean) ([3]; isolate 6312, drug 8 μg/mL): 1 | Cell counts plate A [3, 14]: 0 | Cell counts plate B [3, 14]: 0 | Mutation frequency [3, 14]: <2.56E−10 | Cell counts plate A [3, 15]: 0 | Cell counts plate B [3, 15]: 0 | Mutation frequency [3, 15]: <2.56E−10 | Cell counts plate A [3, 16]: 0 | Cell counts plate B [3, 16]: 0 | Mutation frequency [3, 16]: <2.56E−10 | MIC ([4]; read-out: MIC over all strains under test, 23 MRSA isolates): 0.015 µg/mL (≈ 0.0124 µM) | MIC ([4]; strain 3085, LEV^S RIF^S): 0.015 µg/mL (≈ 0.0124 µM) | MIC ([4]; strain 3090, LEV^R RIF^S): 0.015 µg/mL (≈ 0.0124 µM) | MIC ([4]; strain 3094, LEV^R RIF^S): 0.015 µg/mL (≈ 0.0124 µM) | MIC ([4]; strain 3098, LEV^S RIF^S): 0.015 µg/mL (≈ 0.0124 µM) | MIC ([4]; strain 3265, LEV^R RIF^S): 0.015 µg/mL (≈ 0.0124 µM) | MIC ([4]; strain 3266, LEVR RIFS): 0.015 µg/mL (≈ 0.0124 µM) | MIC ([4]; strain 3270, LEV^R RIF^S): 0.015 µg/mL (≈ 0.0124 µM) | MIC ([4]; strain 3271, LEV^R RIF^S): 0.015 µg/mL (≈ 0.0124 µM) | MIC ([4]; strain 3277, LEV^S RIF^S): 0.015 µg/mL (≈ 0.0124 µM) | MIC ([4]; strain 3278, LEV^S RIF^S): 0.015 µg/mL (≈ 0.0124 µM) | MIC ([4]; strain 6312, LEV^R RIF^S): 0.015 µg/mL (≈ 0.0124 µM) | MIC ([4]; strain 6313, LEV^R RIF^S): 0.015 µg/mL (≈ 0.0124 µM) | MIC ([4]; strain 6315, LEV^R RIF^S): 0.015 µg/mL (≈ 0.0124 µM) | MIC ([4]; strain 6498, LEV^R RIF^S): 0.015 µg/mL (≈ 0.0124 µM) | MIC ([4]; strain 6501, LEV^R RIF^S): 0.015 µg/mL (≈ 0.0124 µM) | MIC ([4]; strain 6505, LEV^R RIF^S): 0.015 µg/mL (≈ 0.0124 µM) | MIC ([4]; strain 7771, LEV^R RIF^S): 0.015 µg/mL (≈ 0.0124 µM) | MIC ([4]; strain 7772, LEV^S RIF^S): 0.015 µg/mL (≈ 0.0124 µM) | MIC ([4]; strain 7773, LEV^R RIF^S): 0.015 µg/mL (≈ 0.0124 µM) | MIC ([4]; strain 7774, LEV^R RIF^S): 0.015 µg/mL (≈ 0.0124 µM) | MIC ([4]; strain 7775, LEV^R): 0.015 µg/mL (≈ 0.0124 µM)

Reference: patent publication US20220087990A1, “APPLICATION OF RIFAMYCIN-QUINOLIZIDONE CONJUGATE MOLECULE AND PHARMACEUTICALLY ACCEPTABLE SALT THEREOF” (priority 2019, published 2022)
